# Measured values as given in patent publication US6057450A, “Derivatives of pyroglutaminic acid preparation process and applications” (Totiam, S.L., priority 1994, dated 2000).
# Legend:
# Swiss mice = assay: single-dose intraperitoneal toxicity in mice; conditions: i.p. single dose; 236 (Cl) 800 mcg/Kg, 278 (Ac) 4.2 mg/Kg, 320 (Ac) 4.8 mg/Kg, respectively
# human lymphocytes = assay: in vitro non-specific lymphoproliferative response (RLP-I) to PHA, human lymphocyte cultures; assay type: cell-based; conditions: for RLP-I B < A, number of witness models / RLP-I B < A, percentage of witness models / RLP-I B > A, number of witness models / RLP-I B > A, percentage of witness models: Table V, PHA + BRM-BLAS (B) versus PHA (A); for number of cases with RLP-I B > A in 33-50% of the witness models / number of cases with RLP-I B > A in 67% of the witness models / number of cases with RLP-I B > A in 100% of the witness models / percentage of cases with RLP-I B > A in 33-50% of the witness models / percentage of cases with RLP-I B > A in 67% of the witness models / percentage of cases with RLP-I B > A in 100% of the witness models: Table VI, intragroup individual analysis
# Experimental: The "in vitro" lymphocyte response has been assessed in samples of circulating and peripheral venous blood from asymptomatic blood donor adults of both sexes. In general, the lymphocyte cultures include in each case six experimental models called witnesses, and incorporate progressive doses between 0.25-6.0 units (20-500 ng) of the BRM-BLAS compounds and PHA. The RLP-I of each one has been morphologically determined and is expressed in absolute values of lymphoblasts/10,000.
# Systematically, in all the cases it has been tabulated the RLP-I to the PHA, basal, of the PHA models; to the PHA+BRM-BLAS, of the "witness" models and the maximum individual response of the witness models (RMC), in each case.
# [1] = system: circulating peripheral blood lymphocytes; assay: in vivo lymphocyte kinetics / response in asymptomatic rabbits; design: species or system New Zealand's albino, giant rabbits
# Excerpt: (§1) The pharmacodynamic study to assess the leuko-lymphocyte kinetics has been carried out in New Zealand's albino, giant, female, adult, asymptomatic (healthy) rabbits. The blood samples with EDTA (ethylene-diamino-tetraAcetic acid), non-coagulable, for the periodical weekly controls, have been obtained by aseptic puncture from the marginal vein of the outer ear. The count and the differential cytologic survey of the white series has been routinely performed in a "Coulter" (Coulter Cientifica, S.A., STKs model) differential analyzer, within the two hours following the extraction.
# Hereinafter, there is a summary of the most significant results of the preclinical protocols which include different experimental conditions, different BRM-BLAS products and doses which vary in vary of their concentration of the product, frequency and number. […]
# This study comprises three concatenated experimental situations. The first one is focused on the vicissitudes of the leuko-lymphocyte kinetics occurred during a pause, "first" moment, that takes place months after several doses, mainly of BRM-BLAS 236 (Cl) compounds and includes 30 individual assessments (6 of the group) days 0 to 39. The second "second" moment, is centered on the successive changes occurred after the administration on the 39th day of an intravenous dose of 8 u/Kg (0.6 mcg/Kg) of the BRM-BLAS 278 (Ac) compounds and includes a total of 25 individual assessments (5 of the group), days 43rd to 68th. The third one, moments "third" to "seventh", analyzes the changes induced after the intravenous administration on the 68th day of 22 u/Kg (1.8 mcg/Kg) of BRM-BLAS 320 (Ac) compounds and includes […] (6 of the group×5 times), days 75th to 287th of the study. The assessment prior to the last dose, the lymphocyte average of which is the lowest of the group during the study, has been selected as the common baseline (100%) for reference of the comparative analysis between the assessments.
# [2] = system: circulating peripheral blood leukocytes; assay: in vivo leukocyte kinetics / response in asymptomatic rabbits; design: species or system New Zealand's albino, giant rabbits
# Excerpt: as §1
# Hereinafter, there is a summary of the most significant results of the preclinical protocols which include different experimental conditions, different BRM-BLAS products and doses which vary in vary of their concentration of the product, frequency and number.
# The leuko-lymphocyte mean values of the group run parallelly during the study, in general above the respective basal values before the treatment to which they return in the last two assessments. They reach the higher ones 7, 16 and 20 days after the first, second and third dose, FIG. 12, FIG. 13 and Table VIII (assessments: 3, 8 and 13).
# A total number of 225 individual assessments and 45 of the group assessments have been performed, grouped in four evolutive periods moments. The "first" one includes the 40 individual assessments (8 of the group) after the two first doses, days 0 to 43rd; the "second", the 85 (17 of the group) after the third, fourth and fifth doses, days 46th to 147th; the "third", the first 50 (10 of the group) after the sixth, days 153rd to 213th, and the "fourth", the last 50 (10 of the group), days 220th to 282nd, respectively. The assessment of the group prior to the third dose (43rd day), the lymphocyte mean of which has been the lowest during the survey, has been taken as the natural reference baseline for the comparative analysis of punctual and grouped data.
# This trail is subsequent to the protocol previously described and corresponds to the "fifth" moment of the global study, FIG. 14 and FIG. 15.
# After the subcutaneous administration of a dose of 30 u/Kg (2.1 mcg/Kg) of the BRM-BLAS 278 (Cl) compounds 137 days after the sixth dose of the BRM-BLAS 320 (Ac) compounds, in the presence of high figures of the lymphocyte mean of the group, at the "fourth" moment, such figures were specifically exceeded by the 4th and 5th punctual weekly assessments of the "fifth" moment, 24th (184%) and 31st (180%) days, respectively, FIG. 14. Globally, 28% of the assessment exceed basal values by one or two standard deviations; 57% in three, and the difference is statistically in all of them. The resulting mean of the data gathered for the "fifth" moment with a 158% of the basal values, exceed those of the four previous moments, and the difference is statistically significant compared with those of the "first", "second" and "third", and exceeds that of the "first" in more than one standard deviation, FIG. 15 and (Table IX). […]
# patients with cancer = conditions: patients with favourable prognosis factors; cited from earlier work
# [3] = three i.v. doses 5 U/Kg (300 ng/Kg) every 21 days, assessment 8, 37th day
# [4] = three i.v. doses 5 U/Kg every 21 days
# [5] = progressive i.v. doses, "second" moment
# [6] = progressive i.v. doses, grouped results
# [7] = single i.v. high dose 22 u/Kg (1.8 mcg/Kg)
molecule,measurement,setting,value
"NC1(C[n+]2ccccc2)CC(C(=O)O)NC1=O (stereo not shown) [BRM-BLAS 236 (Cl), 4-ammonium-4-(1-pyridiniomethyl) pyroglutamic acid dichloride]","tolerance / toxicity, single dose",Swiss mice,perfectly tolerated without evidences of toxicity
same,"RLP-I B < A, number of witness models",human lymphocytes,20 Num.
same,"RLP-I B < A, percentage of witness models",human lymphocytes,30%
same,"RLP-I B > A, number of witness models",human lymphocytes,46 Num.
same,"RLP-I B > A, percentage of witness models",human lymphocytes,70%
same,number of cases with RLP-I B > A in 33-50% of the witness models,human lymphocytes,11 Num.
same,number of cases with RLP-I B > A in 67% of the witness models,human lymphocytes,9 Num.
same,number of cases with RLP-I B > A in 100% of the witness models,human lymphocytes,2 Num.
same,percentage of cases with RLP-I B > A in 33-50% of the witness models,human lymphocytes,100%
same,percentage of cases with RLP-I B > A in 67% of the witness models,human lymphocytes,82%
same,percentage of cases with RLP-I B > A in 100% of the witness models,human lymphocytes,18%
same,highest lymphocyte mean value versus basal,[1]; [3],157%
same,assessments with lymphocyte mean above basal by more than three standard deviations,[1]; [4],10%
same,assessments with lymphocyte mean above basal by more than two standard deviations,[1]; [4],20%
same,assessments with lymphocyte mean above basal over the standard deviation,[1]; [4],75%
same,assessments with statistically significant difference of lymphocytes versus basal,[1]; [4],35%
same,highest leukocyte mean value versus basal,[2]; [3],169%
same,assessments with leukocyte mean above basal by more than three standard deviations,[2]; [4],5%
same,assessments with leukocyte mean above basal by more than two standard deviations,[2]; [4],20%
same,assessments with leukocyte mean above basal over the standard deviation,[2]; [4],55%
same,assessments with statistically significant difference of leukocytes versus basal,[2]; [4],70%
same,leukocyte response,[2]; [4],increase in the number of leukocytes which affect granulocytes as well as lymphocytes in the same way
same,time to higher leuko-lymphocyte mean values after first dose,"[2]; three i.v. doses 5 U/Kg every 21 days, first dose",7 days
same,"leuko-lymphocyte mean of ""first"" period versus ""fourth"" period and basal","[2]; three i.v. doses 5 U/Kg every 21 days, grouped results",practically by two standard deviations
same,time to higher leuko-lymphocyte mean values after second dose,"[2]; three i.v. doses 5 U/Kg every 21 days, second dose",16 days
same,time to higher leuko-lymphocyte mean values after third dose,"[2]; three i.v. doses 5 U/Kg every 21 days, third dose",20 days
"CC(=O)NC1(C[n+]2ccccc2)CC(C(=O)O)N(C(C)=O)C1=O (stereo not shown) [BRM-BLAS 320 (Ac), 1-acetyl-4-acetylamino-4-(1-pyridiniomethyl) pyroglutamic acid acetate]","tolerance / toxicity, single dose",Swiss mice,perfectly tolerated without evidences of toxicity
same,"RLP-I B < A, number of witness models",human lymphocytes,17 Num.
same,"RLP-I B < A, percentage of witness models",human lymphocytes,21%
same,"RLP-I B > A, number of witness models",human lymphocytes,65 Num.
same,"RLP-I B > A, percentage of witness models",human lymphocytes,70%
same,number of cases with RLP-I B > A in 33-50% of the witness models,human lymphocytes,14 Num.
same,number of cases with RLP-I B > A in 67% of the witness models,human lymphocytes,9 Num.
same,number of cases with RLP-I B > A in 100% of the witness models,human lymphocytes,5 Num.
same,percentage of cases with RLP-I B > A in 33-50% of the witness models,human lymphocytes,100%
same,percentage of cases with RLP-I B > A in 67% of the witness models,human lymphocytes,64%
same,percentage of cases with RLP-I B > A in 100% of the witness models,human lymphocytes,36%
same,"animals with individual lymphocyte mean ""fourth"" versus ""first"" moment higher by three standard deviations",[1]; progressive i.v. doses,60%
same,"animals with individual lymphocyte mean ""fourth"" versus ""first"" moment higher by two standard deviations",[1]; progressive i.v. doses,40%
same,lymphocyte response,[1]; progressive i.v. doses 5-30 units/Kg (0.4-2.4 mcg/Kg),selective and significant increase in the number of lymphocytes that starts after the third dose and reaches its maximum level after the sixth
same,"assessments with lymphocyte mean exceeding one standard deviation, ""second"" moment",[1]; [5],41%
same,"assessments with statistically significant lymphocyte difference, ""second"" moment",[1]; [5],43%
same,highest average lymphocyte value versus basal,"[1]; progressive i.v. doses, day 241st of the study, ""fourth"" moment",178%
same,"assessments exceeding mean lymphocyte basal values by more than one, two or three standard deviations, ""third"" moment","[1]; progressive i.v. doses, days 153rd to 213th",80%
same,"assessments exceeding mean lymphocyte basal values by more than one, two or three standard deviations, ""fourth"" moment","[1]; progressive i.v. doses, days 220th to 282nd",100%
same,"grouped lymphocyte mean versus baseline, ""first"" period",[1]; [6],110%
same,"grouped lymphocyte mean versus baseline, ""fourth"" period",[1]; [6],152%
same,"grouped lymphocyte mean versus baseline, ""second"" period",[1]; [6],120%
same,"grouped lymphocyte mean versus baseline, ""third"" period",[1]; [6],131%
same,"cases with individual lymphocyte mean at ""seventh"" exceeding ""first"" moment by one, two or three standard deviations",[1]; single i.v. high dose 22 u/Kg,80%
same,lymphocyte mean versus baseline from the 53rd day,[1]; [7],surpasses the baseline by two or three standard deviations from the 53rd day
same,onset of lymphocyte increase after the dose,[1]; [7],twenty days after the high dose
same,highest lymphocyte mean versus basal,"[1]; single i.v. high dose 22 u/Kg (1.8 mcg/Kg), 88th and 202nd days after dose",212%
same,duration of statistically significant lymphocyte increase,"[1]; single i.v. high dose 22 u/Kg (1.8 mcg/Kg), from 53rd day","statistically significant uninterruptedly, until the 213th day"
same,selectivity for lymphocytes versus granulocytes and monocytes,"[1]; single i.v. high dose 22 u/Kg, FIG. 18 and FIG. 19",sustained and selective immunomodulating activity or effect of the BRM-BLAS 320 (Ac) compounds on subpopulations of lymphocytes without detriment to the number of granulocytes and monocytes
same,"animals with leukocyte mean at ""fourth"" exceeding ""first"" moment by two or three standard deviations",[2]; progressive i.v. doses,40%
same,assessments with leukocyte mean exceeding basal by one standard deviation,[2]; progressive i.v. doses,4.4%
same,leukocyte punctual assessments versus basal,[2]; progressive i.v. doses,the difference is never became statistically significant
same,"leukocyte mean versus basal, 227th day","[2]; progressive i.v. doses, 227th day",129%
same,"leukocyte mean versus basal, 241st day","[2]; progressive i.v. doses, 241st day",136%
IFN-α,effect on tumor metastases,patients with cancer,can cause the regression of tumor metastases
